Patent publication US20160159774A1 (Celgene Avilomics Research, Inc., priority 2014, published 2016)
pEC50, pIC50: −log10 of the molar value.

Columns and labels:
activated BTK enzyme = target: T1, activated BTK enzyme (Homo sapiens, UniProt Q06187); assay: Omnia assay for potency assessment against BTK; assay type: biochemical; settings: BTK inhibition assay; [BTK]=5 nM, [ATP]=40 μM, [Y5-Sox]=10 μM
T1 construct: purchased Life Technologies PV3363
Source text: Omnia Assay Protocol for Potency Assessment Against BTK
The protocol below describes an assay to measure potency of compounds against the activated BTK enzyme. The mechanics of the assay platform are best described by the vendor (Life Technologies, Carlsbad, Calif.) on their website at the following URLs: www.lifetechnologies.com/us/en/home/life-science/drug-discovery/target-and-lead-identification-and-validation/kinasebiology/kinase-activity-assays/omnia-kinase-assays/omnia-kinase-principle.html and tools.lifetechnologies.com/content/sfs/manuals/omnia_kinase_assay_man.pdf
Briefly, 10× stocks of BTK (PV3363) from Life Technologies, 1.13×ATP (AS00lA) and Sox conjugated peptide substrates, Y5-Sox, (KZN305l) were prepared in 1× kinase reaction buffer consisting of 20 mM Tris, pH 7.5, 5 mM MgCl2, 1 mM EGTA, 5 mM (3-glycerophosphate, 5% glycerol (10× stock, KB002A) and 0.2 mM DTT (DS00lA). 5 μL of each enzyme were pre-incubated in a Corning (#3574) 384-well, white, non-binding surface microtiter plate (Corning, N.Y.) for 30 min. at room temperature with a 0.5 μL volume of 50% DMSO or serially diluted compounds prepared in 50% DMSO. Kinase reactions were started with the addition of […] of the ATP/Tyr-Sox peptide substrate Y5 mix and monitored every 71 seconds for 60 minutes at λex360/λem485 in a Synergy4 plate reader from BioTek (Winooski, Vt.). At the conclusion of each assay, progress curves from each well were examined for linear reaction kinetics and fit statistics (R2, 95% confidence interval, absolute sum of squares). Initial velocity (0 minutes to ˜30 minutes) from each reaction was determined from the slope of a plot of relative fluorescence units vs time (minutes) and then plotted against inhibitor concentration to estimate IC50 from log [Inhibitor] vs Response, Variable Slope model in GraphPad Prism from GraphPad Software (San Diego, Calif.).
Reagent conditions for the assay are:
[BTK]=5 nM, [ATP]=40 μM, [Y5-Sox]=10 μM (ATP KMapp˜36 μM).
The compound numbers correspond to the compound numbers in the examples.

[1] = target: T2, BTK in Ramos human Burkitt lymphoma cells (Homo sapiens, UniProt Q06187); assay: BTK Ramos cellular assay (BTK occupancy); assay type: cell-based; settings: concentration producing 50% occupancy of BTK, 1 hour incubation with compound
T2 construct: Compounds of this invention were assayed in Ramos human Burkitt lymphoma cells; endogenous in cells; host or cells: Ramos human Burkitt lymphoma cells
T2 sequence (Q06187 whole entry): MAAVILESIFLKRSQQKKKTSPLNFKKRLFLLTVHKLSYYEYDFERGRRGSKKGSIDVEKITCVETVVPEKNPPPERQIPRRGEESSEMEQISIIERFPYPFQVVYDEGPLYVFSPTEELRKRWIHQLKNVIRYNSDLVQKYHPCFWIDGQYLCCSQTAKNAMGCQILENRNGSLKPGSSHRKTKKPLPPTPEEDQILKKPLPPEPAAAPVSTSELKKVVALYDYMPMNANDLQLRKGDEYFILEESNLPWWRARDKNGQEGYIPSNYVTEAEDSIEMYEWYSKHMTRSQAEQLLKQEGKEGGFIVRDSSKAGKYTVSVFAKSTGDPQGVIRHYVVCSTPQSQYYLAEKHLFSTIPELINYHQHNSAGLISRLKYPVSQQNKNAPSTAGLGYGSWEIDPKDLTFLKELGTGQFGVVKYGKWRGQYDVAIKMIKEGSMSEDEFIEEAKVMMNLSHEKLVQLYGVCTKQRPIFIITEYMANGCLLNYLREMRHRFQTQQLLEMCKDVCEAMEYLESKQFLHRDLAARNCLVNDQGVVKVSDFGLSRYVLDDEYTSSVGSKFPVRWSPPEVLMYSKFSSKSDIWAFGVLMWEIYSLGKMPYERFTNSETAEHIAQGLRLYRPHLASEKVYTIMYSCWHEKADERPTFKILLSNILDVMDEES
Procedure: BTK activity in Ramos cells, in the presence of a compound of the invention, can be measured by 3 different methods: 1) inhibition of autophosphorylation of BTK; 2) inhibition of phosphorylation of the immediate BTK surrogate PLCγ2; and 3) BTK occupancy. […] In this instance, BTK occupancy was chosen and is described below.
Compounds of this invention were assayed in Ramos human Burkitt lymphoma cells. Ramos cells were grown in suspension in T175 flasks, spun down, resuspended to a concentration of 2×10^6 cells per mL in serum-free media and incubated for 1 hour. Compound was added to Ramos cells to a final concentration of 500, 166.7, 55.6, 18.5, 6.2, 2.1, and 0.7 nM. Ramos cells were incubated with compound for 1 hour, washed with PBS and lysed in 1004 of BioRad lysis Buffer. Cell lysates were incubated with a biotinylated covalent probe (compound 1-215 disclosed in U.S. published application number 2010/0029610, incorporated by reference in its entirety) at a final concentration of 1 μM in a PBS, 0.05% Tween-20, 1% BSA solution for 1 h at room temperature. Standards and samples were transferred to a streptavidin-coated 96-well ELISA plate and mixed while shaking for 1 h at room temperature. The α-Btk antibody (BD 611116, 1:1000 dilution in PBS+0.05% Tween-20+0.5% BSA) was then added and incubated for 1 h at room temperature. After wash, goat α-mouse-HRP (1:5000 dilution in PBS+0.05% Tween-20+0.5% BSA) was added and incubated for 1 h at room temperature. The ELISA was developed with addition of tetramethyl benzidine (TMB) followed by Stop Solution and read at OD 450 nm. The standard curve (11.7-3000 pg/μL) was generated with human full-length recombinant Btk protein and plotted using a 4 parameter curve fit in Gen5 software. Uninhibited Btk detected from samples was normalized to μg total protein as determined by BCA protein analysis (Pierce Cat. 23225).
The results of this assay show the concentration of compound producing 50% occupancy of BTK. This level of occupancy empirically translates to a level of 50% inhibition of BTK activity (both as measured by autophosphorylation and by phosphorylation of PLCγ2). […] The compound numbers correspond to the compound numbers in the examples.

T1 sequence (Q06187 whole entry): as above

Row | pIC50 (activated BTK enzyme) | pEC50 [1] | melting point [°C] | SMILES
1 | > 8.00 | > 8.00 |  | C=CC(=O)N1CCC[C@@H](Nc2nc(Nc3ccc4c(c3)CCN(C3CCC3)C4)ncc2F)C1 [Compound I-42, (R)-1-(3-((2-((2-cyclobutyl-1,2,3,4-tetrahydroisoquinolin-6-yl)amino)-5-fluoropyrimidin-4-yl)amino)piperidin-1-yl)prop-2-en-1-one]
2 | > 8.00 | > 8.00 |  | C=CC(=O)N1CCC[C@@H](Nc2nc(Nc3ccc4c(c3)CCN(CC3CC3)C4)ncc2F)C1 [Compound I-43, (R)-1-(3-((2-((2-(cyclopropylmethyl)-1,2,3,4-tetrahydroisoquinolin-6-yl)amino)-5-fluoropyrimidin-4-yl)amino)piperidin-1-yl)prop-2-en-1-one]
3 | > 8.00 | 7.00 to 8.00 |  | C=CC(=O)N1CCC[C@@H](Nc2nc(Nc3ccc4c(c3)CCN(C3CC3)C4)ncc2F)C1 [Compound I-44, (R)-1-(3-((2-((2-Cyclopropyl-1,2,3,4-tetrahydroisoquinolin-6-yl)amino)-5-fluoropyrimidin-4-yl)amino)piperidin-1-yl)prop-2-en-1-one]
4 | > 8.00 | > 8.00 |  | C=CC(=O)N1CCC[C@@H](Nc2nc(Nc3ccc4c(c3)CCN(C(C)(C)C)C4)ncc2F)C1 [Compound I-45, (R)-1-(3-((2-((2-(tert-Butyl)-1,2,3,4-tetrahydroisoquinolin-6-yl)amino)-5-fluoropyrimidin-4-yl)amino)piperidin-1-yl)prop-2-en-1-one]
5 | > 8.00 | > 8.00 |  | C=CC(=O)N1CCC[C@@H](Nc2nc(Nc3ccc4c(c3)CN(C3CCC3)CC4)ncc2F)C1 [Compound I-46, (R)-1-(3-(2-(2-Cyclobutyl-1,2,3,4-tetrahydroisoquinolin-7-ylamino)-5-fluoropyrimidin-4-ylamino)piperidin-1-yl)prop-2-en-1-one]
6 | > 8.00 | > 8.00 | 80 to 82 | C=CC(=O)N1CCC[C@@H](Nc2nc(Nc3ccc4c(c3)CN(CC3CC3)CC4)ncc2F)C1 [Compound I-47, (R)-1-(3-(2-(2-(Cyclopropylmethyl)-1,2,3,4-tetrahydroisoquinolin-7-ylamino)-5-fluoropyrimidin-4-ylamino)piperidin-1-yl)prop-2-en-1-one]
7 | > 8.00 | > 8.00 | 105 to 107 | C=CC(=O)N1CCC[C@@H](Nc2nc(Nc3ccc4c(c3)CN(C3CC3)CC4)ncc2F)C1 [Compound I-48, (R)-1-(3-(2-(2-Cyclopropyl-1,2,3,4-tetrahydroisoquinolin-7-ylamino)-5-fluoropyrimidin-4-ylamino)piperidin-1-yl)prop-2-en-1-one]
8 | > 8.00 | 7.00 to 8.00 |  | C=CC(=O)N1CCC[C@@H](Nc2nc(Nc3ccc4c(c3)CCCN(CC3COC3)C4)ncc2F)C1 [Compound I-50, (R)-1-(3-((5-Fluoro-2-((2-(oxetan-3-ylmethyl)-2,3,4,5-tetrahydro-1H-benzo[c]azepin-7-yl)amino)pyrimidin-4-yl)amino)piperidin-1-yl)prop-2-en-1-one]
9 | > 8.00 | 7.00 to 8.00 |  | C=CC(=O)N1CCC[C@@H](Nc2nc(Nc3ccc4c(c3)CCCN(C3CC3)C4)ncc2F)C1 [Compound I-51, (R)-1-(3-((2-((2-Cyclopropyl-2,3,4,5-tetrahydro-1H-benzo[c]azepin-7-yl)amino)-5-fluoropyrimidin-4-yl)amino)piperidin-1-yl)prop-2-en-1-one]
10 | > 8.00 | 7.00 to 8.00 |  | C=CC(=O)N1CCC[C@@H](Nc2nc(Nc3ccc4c(c3)CCCN(C)C4=O)ncc2F)C1 [Compound I-52, (R)-7-((4-((1-Acryloylpiperidin-3-yl)amino)-5-fluoropyrimidin-2-yl)amino)-2-methyl-2,3,4,5-tetrahydro-1H-benzo[c]azepin-1-one]
11 | > 8.00 | > 8.00 |  | C=CC(=O)N1CCC[C@@H](Nc2nc(Nc3ccc4c(c3)CNCCC4)ncc2F)C1 [Compound I-53, (R)-1-(3-(5-Fluoro-2-(2,3,4,5-tetrahydro-1H-benzo[c]azepin-8-ylamino)pyrimidin-4-ylamino)piperidin-1-yl)prop-2-en-1-one]
12 | > 8.00 | 7.00 to 8.00 |  | C=CC(=O)N1CCC[C@@H](Nc2nc(Nc3ccc4c(c3)CN(C)CCC4)ncc2F)C1 [Compound I-55, (R)-1-(3-(5-Fluoro-2-(2-methyl-2,3,4,5-tetrahydro-1H-benzo[c]azepin-8-ylamino)pyrimidin-4-ylamino)piperidin-1-yl)prop-2-en-1-one]
13 | > 8.00 | 7.00 to 8.00 |  | C=CC(=O)N1CCC[C@@H](Nc2nc(Nc3ccc4c(c3)CCNCC4)ncc2F)C1 [Compound I-57, (R)-1-(3-(5-Fluoro-2-(2,3,4,5-tetrahydro-1H-benzo[d]azepin-7-ylamino)pyrimidin-4-ylamino)piperidin-1-yl)prop-2-en-1-one]
14 | > 8.00 | 7.00 to 8.00 |  | C=CC(=O)N1CCC[C@@H](Nc2nc(Nc3ccc4c(c3)CCN(C3CC3)CC4)ncc2F)C1 [Compound I-60, (R)-1-(3-(2-(3-Cyclopropyl-2,3,4,5-tetrahydro-1H-benzo[d]azepin-7-ylamino)-5-fluoropyrimidin-4-ylamino)piperidin-1-yl)prop-2-en-1-one]
15 | > 8.00 | 6.00 to 7.00 |  | C=CC(=O)N1CCC[C@@H](Nc2nc(Nc3ccc4c(c3)C(=O)N(C)C4)ncc2F)C1 [Compound I-62]
16 | > 8.00 | 7.00 to 8.00 |  | C=CC(=O)N1CCC[C@@H](Nc2nc(Nc3ccc4c(c3)C(=O)N(C)C4=O)ncc2F)C1 [Compound I-63, (R)-5-((4-((1-Acryloylpiperidin-3-yl)amino)-5-fluoropyrimidin-2-yl)amino)-2-methylisoindoline-1,3-dione]
17 | > 8.00 | > 8.00 |  | C=CC(=O)N1CCC[C@@H](Nc2nc(Nc3ccc4c(c3)CN(C)C4)ncc2C(F)(F)F)C1 [Compound I-64, (R)-1-(3-((2-((2-Methylisoindolin-5-yl)amino)-5-(trifluoromethyl)pyrimidin-4-yl)amino)piperidin-1-yl)prop-2-en-1-one]
18 | > 8.00 | > 8.00 |  | C=CC(=O)N1CCC[C@@H](Nc2nc(Nc3ccc4c(c3)CNC4)ncc2C(F)(F)F)C1 [Compound I-65, (R)-1-(3-((2-(Isoindolin-5-ylamino)-5-(trifluoromethyl)pyrimidin-4-yl)amino)piperidin-1-yl)prop-2-en-1-one]
19 | > 8.00 | 7.00 to 8.00 |  | C#CCN1Cc2ccc(Nc3ncc(F)c(N[C@@H]4CCCN(C(=O)C=C)C4)n3)cc2C1 [Compound I-67, (R)-1-(3-((5-Fluoro-2-((2-(prop-2-yn-1-yl)isoindolin-5-yl)amino)pyrimidin-4-yl)amino)piperidin-1-yl)prop-2-en-1-one]
